# Measurements as given in paper PMC11062899, “De novo development of small cyclic peptides that are orally bioavailable” (Nature Chemical Biology, 2023).
# “And” between values parts separate entries of the source, which are not always exact repeats. Identical values can stand only once. Like-named read-outs stand apart in the source and are kept apart here. Square brackets hold non-standard residues; d marks the D form. Peptide text beside a SMILES is read from it. NMeY = CN[C@@H](Cc1ccc(O)cc1)C(=O)O; NMeL = CN[C@@H](CC(C)C)C(=O)O; dNMeL = CN[C@H](CC(C)C)C(=O)O
# Legend:
# [1] = Metabolic stability in rat liver microsomes (RLMs); settings: for half-life at 10 μM / microsomal CLint at 10 μM / microsomal CLint / half-life: rat; for microsomal CLint / half-life: microsomes
# porcine pepsin = molecular target: T1, porcine pepsin (Sus scrofa, UniProt P00791); assay: Peptide stability in simulated gastric fluid (SGF); assay type: in vitro ADME; design: remaining at 8 h: dose or concentration left out as unconfirmed; settings: for remaining at 8 h: 37 °C, pH 1.2, read-out: Proteolytic stability: SGF (8 h) % remaining
# T1 construct: 0.32 g of porcine pepsin (Sigma-Aldrich, P7125) was dissolved under gentle agitation; purchased Sigma-Aldrich P7125
# Summary of the method: (§1)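 Peptide from a 1 mM DMSO stock was added to fluid pre-warmed at 37 °C. SGF was pH 1.2 NaCl with porcine pepsin (0.32 g per 100 ml), and SIF was pH 6.8 potassium phosphate with porcine pancreatin (1 g per 100 ml). Supernatant peptide was quantified by LC–MS, with residual expressed as T1/T0.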
# porcine pancreatin = assay: Peptide stability in simulated intestinal fluid (SIF); assay type: in vitro ADME; design: remaining at 8 h: dose or concentration left out as unconfirmed
# Summary of the method: as §1
# in vivo = settings: male, Wistar Han, rat
# Experimental: Male Wistar Han rats (250–350 g) obtained at an age of 9–10 weeks from Charles River Laboratories were used for the studies and kept in housing groups of two or three. Experiments were performed at the age of 10–11 weeks. Intravenous (i.v.) administrations were carried out using tail vein injections. Peptides were dissolved in pure DMSO and diluted with 5% Cremophor EL in water (5% DMSO final) at a concentration of 0.5 mg ml^−1. I.v. administration was carried out at a dose of 1 mg kg^−1 body weight via the left lateral tail vein of rats (n = 3) using an Insyte-W 24 G × 0.75 in. (0.7 mm × 19 mm) temporary peripheral venous catheter (BD Biosciences, 381312). Before injecting the peptide solution, a correct placement of the catheter was confirmed by an apparent reflux of blood through the catheter. Orally (p.o.) administrated peptides were dissolved in DMSO and diluted with 10% Cremophor EL in water (5% DMSO final) at a concentration of 1 mg ml^−1 and administrated by oral gavage to rats (n = 3) at a dose of 10 mg kg^−1. Rats used for oral administration were fasted overnight for 14 h and provided access to food again 2 h after administration, whereas access to water was not restricted throughout the whole experimental procedure. Volumes of 100 μl of blood samples were collected via the right lateral tail vein at different timepoints after i.v. or p.o. administration into heparinized tubes (Sarstedt, 20.1282); the samples were stored on ice for up to 4 h; and plasma was obtained by centrifugation at 2,000g for 5 min at 4 °C. A volume of 40 μl of plasma was added to 120 μl of an acetonitrile:water (9:1) solution containing an internal standard (5 μg ml^−1). Samples were vortexed for 10 s and sonicated for 10 min, and precipitated plasma proteins were pelleted by centrifugation at 16,000g for 15 min at 4 °C. Volumes of 120 μl of supernatant were transferred to a new tube, and solvent was evaporated in a rotary vacuum concentrator (RVC 2–33 CDplus IR, Christ) for 2 h at 40 °C. Dried residues were dissolved in 20 μl of a water:acetonitrile (7:3) (v/v) solution, centrifuged at 14,000g for 5 min and analyzed by LC–MS. Peptides were quantified by extracting ion chromatograms corresponding to their respective mass, integrating the area under the peptide peak and calculating the concentrations by normalization to a calibration curve. Calibration curves were prepared by analyzing spiked samples of blood or plasma with known concentrations of peptide. The absolute oral bioavailability was calculated using equation (6).6 F=AUCp.o./AUCi.v.×Dosei.v./Dosep.o.×100 where AUCp.o. and AUCi.v. are calculated from a plasma concentration versus time curve using the linear trapezoidal rule, and Dosei.v. and Dosep.o. are the intravenously or orally administrated amount of peptide in mg kg^−1.
# [2] = design: method as in PMID 19696042; settings: cited from earlier work
# [3] = cited from earlier work
# rat α-thrombin = molecular target: T2, rat α-thrombin (Rattus norvegicus, UniProt P18292); assay: Protease inhibition, Ki for rat α-thrombin (fluorogenic substrate Z-Gly-Gly-Arg-AMC); assay type: biochemical; settings: replicates R1-R3
# T2 construct: rat α-thrombin (Molecular Innovations) were used at final concentrations of 2 nM and 3 nM; purchased Molecular Innovations
# Summary of the method: (§2)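 Inhibition was measured as AMC fluorescence from 50 μM substrate, monitored for 30 min at 25 °C, relative to a peptide-free control. Human and rat enzymes were present at 2 nM and 3 nM final, respectively, in 50 mM Tris-HCl pH 7.4, 150 mM NaCl, 10 mM MgCl2, 1 mM CaCl2. Ki derives from fitted IC50 via Cheng–Prusoff.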
# [4] = Passive artificial membrane permeability (PAMPA)
# human α-thrombin = human α-thrombin (Homo sapiens, UniProt P00734); assay: Protease inhibition, Ki for human α-thrombin (fluorogenic substrate Z-Gly-Gly-Arg-AMC); assay type: biochemical; settings: replicates R1-R3
# Summary of the method: as §2
# [5] = Peptide stability in simulated intestinal fluid (SIF); assay type: in vitro ADME, porcine; design: remaining at 8 h: dose or concentration left out as unconfirmed; settings: simulated gi fluid; 8 h, 37 °C, pH 6.8; read-out: Proteolytic stability: SIF (8 h) % remaining
# Summary of the method: as §1
# [6] = rat liver microsomes, pH 7.4, Metabolic stability: Half life T1/2 (min), RLMs, mean and SD, three measurements
# [7] = rat liver microsomes, pH 7.4, Metabolic stability: RLM CL (ul/min/mg), RLMs, mean and SD, three measurements
# [8] = peptide 1.33E+02 uM, slope of proteolytic substrate cleavage over time
# [9] = after 8 h vs 0 h (TIC), average of R1-R3
# [10] = after 8 h vs 0 h (TIC), single replicates R1-R3
# T1 sequence (P00791 60-385): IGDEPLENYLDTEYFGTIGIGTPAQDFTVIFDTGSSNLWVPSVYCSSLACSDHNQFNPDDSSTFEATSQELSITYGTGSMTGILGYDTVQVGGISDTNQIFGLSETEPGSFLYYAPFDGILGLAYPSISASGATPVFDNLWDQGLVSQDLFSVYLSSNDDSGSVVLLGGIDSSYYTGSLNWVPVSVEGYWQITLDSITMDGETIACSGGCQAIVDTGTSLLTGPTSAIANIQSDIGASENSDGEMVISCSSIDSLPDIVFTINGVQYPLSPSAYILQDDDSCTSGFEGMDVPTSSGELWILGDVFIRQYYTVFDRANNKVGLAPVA
compound,measurement,setting,value
"CC(C)C[C@@H]1NC(=O)[C@H](Cc2ccc(O)cc2)N(C)C(=O)[C@H]2CCCN2C(=O)[C@H](CC(C)C)NC(=O)[C@H](CC(C)C)N(C)C(=O)[C@@H](CC(C)C)N(C)C1=O [1NMe3, reference compound] (cyclo(L[dNMeL][NMeL]L[dP][NMeY]))",half-life at 10 μM,[1]; [6],193 ± 42 min
same,microsomal CLint at 10 μM,[1]; [7],7.6 ± 1.9 µL/min/mg
same,remaining at 8 h,"porcine pepsin; pig, simulated gastric fluid (SGF) with porcine pepsin",93 ± 12%
same,remaining at 8 h,"porcine pancreatin; pig, simulated intestinal fluid (SIF) with porcine pancreatin, 8 h, 37 °C, pH 6.8, read-out: Proteolytic stability: SIF (8 h) % remaining",98 ± 6%
same,bioavailability,in vivo,27 ± 4%
same,half-life,in vivo; iv,110 min
CCCCCCOC(=O)NC(=N)c1ccc(NCc2nc3cc(C(=O)N(CCC(=O)OCC)c4ccccn4)ccc3n2C)cc1 [dabigatran etexilate],oral availability,[2],6.5%
"COc1ccc([C@@H]2Sc3ccccc3N(CCN(C)C)C(=O)[C@@H]2OC(C)=O)cc1 [Diltiazem, diltiazem, reference compound]",Half Life,"[1]; rat liver microsomes, individual replicates R1-R3",12.36 min
same,RLM CL,"[1]; rat liver microsomes, individual replicates R1-R3, incubation volume 400 ul, protein 0.5 mg/ml",112.14 ul/min/mg protein
same,half-life at 10 μM,"[1]; rat liver microsomes, pH 7.4, Half Life Mean, mean of R1-R3",13.4 min
same,half-life at 10 μM,"[1]; rat liver microsomes, pH 7.4, Half Life, individual replicates R1-R3",14.9 min
same,half-life at 10 μM,[1]; [6],13.4 ± 1.1 min
same,microsomal CLint at 10 μM,[1]; [7],104 ± 8 µL/min/mg
same,microsomal CLint at 10 μM,"[1]; rat liver microsomes, pH 7.4, RLM CL Mean, mean of R1-R3",104 µL/min/mg
same,microsomal CLint at 10 μM,"[1]; rat liver microsomes, pH 7.4, RLM CL, individual replicates R1-R3, incubation volume 400 ul, protein 0.5 mg/ml",93 µL/min/mg
same,metabolic clearance in humans,[3],around 15 ml min^−1 kg^−1
CC(C)[C@@H]1NC(=O)[C@@H](NC(=O)c2ccc(Cl)s2)CNC(=O)CCSCc2cccc(n2)CSCCNC1=O [compound 19],"Rat alpha thrombin inhibition, slope normalized to DMSO",rat α-thrombin; [8],43.4 and 70.6
same,"Rat alpha thrombin inhibition, slope normalized to DMSO",rat α-thrombin; peptide 1.67E+01 uM,56.7 and 58.6
same,"Rat alpha thrombin inhibition, slope normalized to DMSO",rat α-thrombin; peptide 2.08E+00 uM,84.9 and 85.4 and 90.4
same,"Rat alpha thrombin inhibition, slope normalized to DMSO",rat α-thrombin; peptide 3.33E+01 uM,53.0 and 50.7 and 58.4
same,"Rat alpha thrombin inhibition, slope normalized to DMSO",rat α-thrombin; peptide 4.17E+00 uM,73.8 and 75.0 and 69.4
same,"Rat alpha thrombin inhibition, slope normalized to DMSO",rat α-thrombin; peptide 6.67E+01 uM,39.7 and 48.9 and 63.6
same,"Rat alpha thrombin inhibition, slope normalized to DMSO",rat α-thrombin; peptide 8.33E+00 uM,59.4 and 61.3 and 72.8
same,PAMPA permeability: % permeability,"[4]; 50 μM, 12–18 h, acceptor concentration relative to equilibrium",5.7 ± 1.3%
same,Papp at 50 μM,"[4]; PAMPA, pH 7.4",0.38 ×10⁻⁶ cm/s
same,Permeability% Average,"[4]; PAMPA, average of R1-R3",5.7%
same,Permeability% R1,"[4]; PAMPA, replicate R1, TIC of top well sample relative to sample at theoretical equilibrium",7.10%
same,Permeability% R3,"[4]; PAMPA, replicate R3, TIC of top well sample relative to sample at theoretical equilibrium",4.56%
same,microsomal CLint,"[1]; CL (ul/min/mg protein) R1, RLM CL, replicate R1",13.1 µL/min/mg
same,microsomal CLint,"[1]; CL (ul/min/mg protein) R2, RLM CL, replicate R2",42.3 µL/min/mg
same,microsomal CLint,"[1]; CL (ul/min/mg protein) R3, RLM CL, replicate R3",68.3 µL/min/mg
same,half-life,"[1]; Half Life (min) R2, RLM metabolic stability, replicate R2, 0-60 min",32.8 min
same,half-life,"[1]; Half Life (min) R3, RLM metabolic stability, replicate R3, 0-60 min",20.3 min
same,half-life,"[1]; Metabolic stability: Half life T1/2 (min), RLMs, mean and SD, three measurements",53 ± 38 min
same,microsomal CLint,"[1]; Metabolic stability: RLM CL (ul/min/mg), RLMs, mean and SD, three measurements",41 ± 23 µL/min/mg
same,"SGF stability, Residual peptide Average",porcine pepsin; [9],94.69
same,"SGF stability, Residual peptide",porcine pepsin; [10],92.56 and 99.47 and 92.05
same,remaining at 8 h,porcine pepsin; simulated gi fluid,95 ± 4%
same,"Human alpha thrombin inhibition, slope normalized to DMSO",human α-thrombin; peptide 1.02E-03 uM,98.0 and 91.0 and 96.2
same,"Human alpha thrombin inhibition, slope normalized to DMSO",human α-thrombin; peptide 1.04E+00 uM,90.3 and 89.1 and 92.4
same,"Human alpha thrombin inhibition, slope normalized to DMSO",human α-thrombin; peptide 1.27E-04 uM,96.9 and 100.1 and 95.3
same,"Human alpha thrombin inhibition, slope normalized to DMSO",human α-thrombin; peptide 1.30E-01 uM,95.8 and 125.1 and 96.3
same,"Human alpha thrombin inhibition, slope normalized to DMSO",human α-thrombin; [8],74.4 and 73.1 and 82.6
same,"Human alpha thrombin inhibition, slope normalized to DMSO",human α-thrombin; peptide 1.63E-02 uM,97.3 and 90.7 and 96.5
same,"Human alpha thrombin inhibition, slope normalized to DMSO",human α-thrombin; peptide 1.67E+01 uM,83.1 and 82.1 and 94.4
same,"Human alpha thrombin inhibition, slope normalized to DMSO",human α-thrombin; peptide 2.03E-03 uM,96.1 and 96.3 and 98.7
same,"Human alpha thrombin inhibition, slope normalized to DMSO",human α-thrombin; peptide 2.08E+00 uM,89.8 and 84.9 and 90.4
same,"Human alpha thrombin inhibition, slope normalized to DMSO",human α-thrombin; peptide 2.54E-04 uM,98.3 and 94.9 and 77.9
same,"Human alpha thrombin inhibition, slope normalized to DMSO",human α-thrombin; peptide 2.60E-01 uM,93.9 and 90.6 and 94.3
same,"Human alpha thrombin inhibition, slope normalized to DMSO",human α-thrombin; peptide 3.18E-05 uM,98.5 and 92.5 and 100.2
same,"Human alpha thrombin inhibition, slope normalized to DMSO",human α-thrombin; peptide 3.26E-02 uM,95.9 and 95.8 and 99.6
same,"Human alpha thrombin inhibition, slope normalized to DMSO",human α-thrombin; peptide 3.33E+01 uM,78.3 and 75.1 and 78.9
same,"Human alpha thrombin inhibition, slope normalized to DMSO",human α-thrombin; peptide 4.07E-03 uM,94.7 and 93.4 and 96.1
same,"Human alpha thrombin inhibition, slope normalized to DMSO",human α-thrombin; peptide 4.17E+00 uM,83.3 and 83.5 and 89.8
same,"Human alpha thrombin inhibition, slope normalized to DMSO",human α-thrombin; peptide 5.09E-04 uM,93.5 and 91.5 and 93.7
same,"Human alpha thrombin inhibition, slope normalized to DMSO",human α-thrombin; peptide 5.21E-01 uM,92.8 and 90.2 and 92.1
same,"Human alpha thrombin inhibition, slope normalized to DMSO",human α-thrombin; peptide 6.36E-05 uM,97.2 and 93.5 and 90.4
same,"Human alpha thrombin inhibition, slope normalized to DMSO",human α-thrombin; peptide 6.51E-02 uM,99.6 and 94.9 and 95.6
same,"Human alpha thrombin inhibition, slope normalized to DMSO",human α-thrombin; peptide 6.67E+01 uM,77.2 and 75.7 and 77.5
same,"Human alpha thrombin inhibition, slope normalized to DMSO",human α-thrombin; peptide 8.14E-03 uM,97.4 and 94.0 and 99.7
same,"Human alpha thrombin inhibition, slope normalized to DMSO",human α-thrombin; peptide 8.33E+00 uM,84.1 and 83.5 and 81.2
same,remaining at 8 h,[5],62 ± 15%
same,"SIF stability, Residual peptide Average",porcine pancreatin; [9],62.00
same,"SIF stability, Residual peptide",porcine pancreatin; [10],68.18 and 45.06 and 72.76
